From patent CN116139126A, “表没食子儿茶素-3-没食子酸酯在制备嗜水气单胞菌的群体感应抑制剂中的应用” (Yueyang Yumeikang Bio Tech Co ltd, priority 2023, dated 2023)

Test system: hemolysin of Aeromonas hydrophila (嗜水气单胞菌 溶血素)
Experiment: Quantitative beta-hemolysin assay (5% rabbit red blood cells)
Assay type: cell-based, Aeromonas hydrophila AH08

**Q.** What does the source list for `O=C(O[C@@H]1Cc2c(O)cc(O)cc2O[C@@H]1c1cc(O)c(O)c(O)c1)c1cc(O)c(O)c(O)c1` [EGCG, 表没食子儿茶素-3-没食子酸酯]?
**A.** inhibition at 256 µg/mL (Aeromonas hydrophila, Erythrocyte, 256 μg/ml, compared with blank control, read-out: inhibition rate of hemolysin): 28.2%; inhibition of hemolytic activity (in words) (high concentration EGCG): 显著抑制
